Legend:
[1] = molecular target: ATPase family AAA domain-containing protein 2 (Homo sapiens) (UniProt Q6PL18); experiment: Selectivity interaction (Human bromodomain panel (DSF assay)) EUB0000233b ATAD2
[2] = molecular target: Muscarinic acetylcholine receptor M1 (Homo sapiens, UniProt P11229); experiment: Selectivity interaction (Muscarinic M1 receptor assay, human recombinant ) EUB0000877a CHRM1
[3] = molecular target: Mitogen-activated protein kinase kinase kinase 9 (Homo sapiens) (UniProt P80192); experiment: Selectivity interaction (Kinase panel (Invitrogen)) EUB0000639a MAP3K9; details: at 200 nM
[4] = molecular target: Ribosomal protein S6 kinase alpha-3 (Homo sapiens, UniProt P51812); experiment: Selectivity interaction (ActivX KiNativ screen (kinase selectivity in THP-1 cell lysates)) EUB0000639a RPS6KA3; type: subcellular; details: lysate
Ribosomal protein S6 kinase alpha-3, sequence (P51812 whole entry): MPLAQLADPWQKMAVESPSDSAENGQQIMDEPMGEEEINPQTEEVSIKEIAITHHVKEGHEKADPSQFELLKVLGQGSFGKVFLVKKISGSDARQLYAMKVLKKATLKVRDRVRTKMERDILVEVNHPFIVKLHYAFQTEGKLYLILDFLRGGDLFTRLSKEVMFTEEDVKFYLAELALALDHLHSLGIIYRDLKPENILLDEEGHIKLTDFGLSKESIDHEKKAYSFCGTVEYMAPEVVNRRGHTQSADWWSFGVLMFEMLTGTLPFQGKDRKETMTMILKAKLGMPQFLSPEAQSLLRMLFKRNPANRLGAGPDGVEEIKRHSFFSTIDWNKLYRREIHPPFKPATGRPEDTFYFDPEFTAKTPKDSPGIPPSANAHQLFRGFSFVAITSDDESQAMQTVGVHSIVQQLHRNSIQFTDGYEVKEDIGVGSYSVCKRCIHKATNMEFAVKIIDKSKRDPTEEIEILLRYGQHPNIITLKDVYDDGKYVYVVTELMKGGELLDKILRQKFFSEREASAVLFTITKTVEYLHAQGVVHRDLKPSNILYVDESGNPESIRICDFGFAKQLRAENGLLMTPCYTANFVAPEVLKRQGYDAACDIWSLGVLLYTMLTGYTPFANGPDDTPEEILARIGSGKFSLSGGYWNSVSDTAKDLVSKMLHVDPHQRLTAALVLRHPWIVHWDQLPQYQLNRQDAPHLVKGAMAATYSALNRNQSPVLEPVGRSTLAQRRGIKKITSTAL

[5] = molecular target: STE20-like serine/threonine-protein kinase (Homo sapiens, UniProt Q9H2G2); experiment: Selectivity interaction (KinomeScan (DiscoverX)) EUB0000595a SLK; details: at 10 µM
[6] = molecular target: Tyrosine-protein kinase Lck (Homo sapiens, UniProt P06239); experiment: Selectivity interaction (Ambit KINOMEscan and KiNATiv profiling in Jurkat cells) EUB0000090b LCK; type: cell-based; details: at 1 µM
[7] = molecular target: Protein-tyrosine kinase 6 (Homo sapiens, UniProt Q13882); experiment: Selectivity interaction (Ambit KINOMEscan and KiNATiv profiling in Jurkat cells) EUB0000090b PTK6; type: cell-based; details: at 1 µM
[8] = molecular target: T1, Dual specificity mitogen-activated protein kinase kinase 3 (Homo sapiens) (UniProt P46734); experiment: Selectivity interaction (KinomeScan (DiscoverX)) EUB0000045b MAP2K3
T1 sequence (whole entry): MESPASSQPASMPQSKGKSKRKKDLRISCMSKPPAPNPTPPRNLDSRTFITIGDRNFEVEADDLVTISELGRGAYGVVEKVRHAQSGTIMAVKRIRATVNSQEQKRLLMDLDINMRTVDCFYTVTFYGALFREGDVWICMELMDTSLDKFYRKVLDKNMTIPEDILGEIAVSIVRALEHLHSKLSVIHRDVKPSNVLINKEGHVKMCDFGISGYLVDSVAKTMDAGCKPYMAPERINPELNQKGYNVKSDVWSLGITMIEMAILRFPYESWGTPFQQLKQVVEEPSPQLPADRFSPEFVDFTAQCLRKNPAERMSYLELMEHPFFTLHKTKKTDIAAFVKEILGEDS

[9] = molecular target: Ribosomal protein S6 kinase alpha-2 (Homo sapiens) (UniProt Q15349); experiment: Selectivity interaction (KinomeScan (DiscoverX)) EUB0000045b RPS6KA2; details: at 10 µM
[10] = molecular target: Cyclin-dependent kinase 9 (Homo sapiens, UniProt P50750); experiment: Selectivity interaction (KinomeScan (DiscoverX)) EUB0000655a CDK9; details: at 10 µM
[11] = test system: Tyrosine-protein kinase ABL1 (Homo sapiens), P00519 [F317L]; experiment: Selectivity interaction (KinomeScan (DiscoverX)) EUB0000607a ABL1; details: at 10 µM
[12] = molecular target: T2, Cyclin-dependent kinase-like 2 (Homo sapiens) (UniProt Q92772); experiment: Selectivity interaction (KinomeScan (DiscoverX)) EUB0000607a CDKL2; details: at 10 µM
T2 sequence (whole entry): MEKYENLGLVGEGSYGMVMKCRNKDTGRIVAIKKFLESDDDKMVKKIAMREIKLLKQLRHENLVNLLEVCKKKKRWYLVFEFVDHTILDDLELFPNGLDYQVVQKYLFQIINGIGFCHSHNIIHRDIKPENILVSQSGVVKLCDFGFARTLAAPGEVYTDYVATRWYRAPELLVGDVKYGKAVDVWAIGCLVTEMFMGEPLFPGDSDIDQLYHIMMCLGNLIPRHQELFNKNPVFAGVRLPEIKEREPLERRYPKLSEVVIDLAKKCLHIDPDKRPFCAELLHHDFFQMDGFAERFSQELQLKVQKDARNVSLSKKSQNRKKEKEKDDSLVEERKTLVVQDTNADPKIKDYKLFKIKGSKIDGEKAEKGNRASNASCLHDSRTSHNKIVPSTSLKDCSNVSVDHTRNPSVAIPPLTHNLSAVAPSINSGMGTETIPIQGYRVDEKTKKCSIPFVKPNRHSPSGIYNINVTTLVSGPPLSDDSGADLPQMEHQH

[13] = molecular target: aryl hydrocarbon receptor (AHR) (Homo sapiens, UniProt P35869); experiment: Selectivity interaction (Panel of kinases, GPCRs, ion channels and transporters (enzymatic assay)) EUB0000223bCl AHR
[14] = molecular target: Serine/threonine-protein kinase PLK1 (Homo sapiens, UniProt P53350); experiment: Selectivity interaction (Kinase panel (Z-LYTE Assay)) EUB0001632a PLK1; details: at 10 µM
[15] = test system: Mast/stem cell growth factor receptor Kit (Homo sapiens), P10721 [V560G]; experiment: (§1) Selectivity interaction (ProQinase) EUB0000171b KIT
Mast/stem cell growth factor receptor Kit (Homo sapiens), P10721 [V560G], sequence (P10721 whole entry V560G): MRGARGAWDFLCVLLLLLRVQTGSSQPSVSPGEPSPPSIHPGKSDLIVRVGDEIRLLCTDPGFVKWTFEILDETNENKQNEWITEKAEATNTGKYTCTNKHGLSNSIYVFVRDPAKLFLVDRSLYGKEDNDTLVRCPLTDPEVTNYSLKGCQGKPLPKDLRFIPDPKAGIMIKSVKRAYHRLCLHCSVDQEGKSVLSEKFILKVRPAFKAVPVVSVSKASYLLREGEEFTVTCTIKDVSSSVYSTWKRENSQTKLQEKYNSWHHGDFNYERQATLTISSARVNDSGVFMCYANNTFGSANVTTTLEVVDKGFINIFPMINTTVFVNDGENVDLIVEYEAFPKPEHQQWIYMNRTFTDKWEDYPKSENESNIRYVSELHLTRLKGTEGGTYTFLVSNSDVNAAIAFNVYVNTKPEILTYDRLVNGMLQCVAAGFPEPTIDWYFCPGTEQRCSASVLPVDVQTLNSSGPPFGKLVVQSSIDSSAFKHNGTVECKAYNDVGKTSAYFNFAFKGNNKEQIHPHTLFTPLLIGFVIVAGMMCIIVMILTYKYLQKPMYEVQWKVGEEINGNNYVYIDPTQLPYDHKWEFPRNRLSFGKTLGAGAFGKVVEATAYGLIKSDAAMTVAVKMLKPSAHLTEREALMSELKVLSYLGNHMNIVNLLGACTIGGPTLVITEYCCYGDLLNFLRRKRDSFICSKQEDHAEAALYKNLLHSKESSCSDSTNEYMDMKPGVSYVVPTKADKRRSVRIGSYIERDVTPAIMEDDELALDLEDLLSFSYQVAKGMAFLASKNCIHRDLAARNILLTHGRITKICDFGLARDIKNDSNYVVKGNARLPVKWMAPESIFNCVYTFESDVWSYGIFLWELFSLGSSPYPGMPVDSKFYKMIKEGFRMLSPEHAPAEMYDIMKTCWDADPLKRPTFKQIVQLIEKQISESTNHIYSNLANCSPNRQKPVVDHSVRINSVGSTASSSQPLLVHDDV

[16] = test system: Mast/stem cell growth factor receptor Kit (Homo sapiens), P10721 [V559D,V654A]; experiment: as §1
[17] = test system: Mast/stem cell growth factor receptor Kit (Homo sapiens), P10721 [A829P]; experiment: as §1
Mast/stem cell growth factor receptor Kit (Homo sapiens), P10721 [A829P], sequence (P10721 whole entry A829P): as the sequence (P10721 whole entry V560G) above, with G560V, A829P counted along it

[18] = test system: Mast/stem cell growth factor receptor Kit (Homo sapiens), P10721 [T670I]; experiment: as §1
[19] = molecular target: Mast/stem cell growth factor receptor Kit (Homo sapiens, UniProt P10721); experiment: as §1
[20] = test system: Mast/stem cell growth factor receptor Kit (Homo sapiens), P10721 [V654A]; experiment: as §1
Mast/stem cell growth factor receptor Kit (Homo sapiens), P10721 [V654A], sequence (P10721 whole entry V654A): as the sequence (P10721 whole entry V560G) above, with G560V, V654A counted along it

[21] = test system: Mast/stem cell growth factor receptor Kit (Homo sapiens), P10721 [D816H]; experiment: as §1
Mast/stem cell growth factor receptor Kit (Homo sapiens), P10721 [D816H], sequence (P10721 whole entry D816H): as the sequence (P10721 whole entry V560G) above, with G560V, D816H counted along it

[22] = test system: Mast/stem cell growth factor receptor Kit (Homo sapiens), P10721 [V559D,T670I]; experiment: as §1
[23] = test system: Mast/stem cell growth factor receptor Kit (Homo sapiens), P10721 [D816V]; experiment: as §1
[24] = test system: Mast/stem cell growth factor receptor Kit (Homo sapiens), P10721 [V559D]; experiment: as §1

Muscarinic acetylcholine receptor M1, sequence (P11229 whole entry): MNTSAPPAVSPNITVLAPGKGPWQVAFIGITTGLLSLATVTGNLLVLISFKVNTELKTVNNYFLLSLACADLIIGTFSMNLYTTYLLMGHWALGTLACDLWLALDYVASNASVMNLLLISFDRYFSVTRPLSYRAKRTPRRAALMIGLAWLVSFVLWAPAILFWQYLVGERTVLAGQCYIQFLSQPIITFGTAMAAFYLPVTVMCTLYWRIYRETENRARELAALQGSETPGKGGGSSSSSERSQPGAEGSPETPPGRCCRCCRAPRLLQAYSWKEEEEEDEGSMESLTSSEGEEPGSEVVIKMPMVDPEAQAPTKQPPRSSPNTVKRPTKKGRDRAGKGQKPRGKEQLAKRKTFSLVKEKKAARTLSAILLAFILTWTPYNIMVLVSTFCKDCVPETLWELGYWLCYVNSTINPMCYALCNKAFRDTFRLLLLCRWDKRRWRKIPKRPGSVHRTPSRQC

SMILES: CN(C)CCCOc1ccc(-c2cc(NCCCn3cccn3)nc(S(C)(=O)=O)n2)cc1
- dTM [1]: < 2 K

SMILES: CCC(=O)N1CC[C@H](Nc2ncnc3c2CN(c2cnc(OC)c(C(F)(F)F)c2)CC3)C1 [LENIOLISIB]
- IC50 [2]: > 30 µM

SMILES: CC[C@@H]1[C@H](F)C(=O)N[C@@H]1COc1nccc2cc(C(N)=O)c(OC)cc12 [ZIMLOVISERTIB]
- % of inhibition [3]: 5.9%
- % of inhibition ([4]; at 0.01 µM): 16.9%
- % of inhibition ([4]; at 0.04 µM): 12.4%
- % of inhibition ([4]; at 0.2 µM): 10.3%
- % of inhibition ([4]; at 1 µM): 8.6%
- % of inhibition ([4]; at 5 µM): 11.7%

SMILES: COCC(=O)NC/C=C/c1ccc2ncnc(Nc3ccc(Oc4ccc(C)nc4)c(C)c3)c2c1 [CP-724714]
- % of control [5]: 60%

SMILES: CN(C)C/C=C/C(=O)Nc1ccc(C(=O)N2CCCC(Nc3ncc(Cl)c(-c4c[nH]c5ccccc45)n3)C2)cc1 (centres undefined)
- % of control [6]: 84%
- % of control [7]: 84%

SMILES: C=CC(=O)Nc1cc(-n2c(=O)ccc3cnc4ccc(-c5ccc(NS(C)(=O)=O)cc5)cc4c32)ccc1C
- % of control ([8]; at 1 µM): 100%
- % of control ([8]; at 10 µM): 69%
- % of control [9]: 78%

SMILES: CN(C)CCOc1ccc(-c2nc(-c3ccncc3)c(-c3ccc4c(c3)CC/C4=N\O)[nH]2)cc1
- % of control [10]: 100%

SMILES: CNC(=O)Nc1ccc(-c2nc(N3CC4CCC(C3)O4)c3cnn(C4CCC5(CC4)OCCO5)c3n2)cc1
- % of control [11]: 96%
- % of control [12]: 100%

SMILES: COc1cc(C(=O)N2CC[C@@H](O)[C@@H](N)C2)cc2nc(-c3cc4ccccc4n3CC3CC3)n(C)c12
- XC50 [13]: 79.4 µM

SMILES: Cn1cc(-n2cnc3c(NCc4nc5cc(Cl)c(Cl)cc5[nH]4)nc(N4CCOCC4)nc32)cn1
- % of control [14]: 1.25%

SMILES: C=CC(=O)Nc1cccc(C(=O)Nc2ccc(Nc3cc(-c4[nH]c(SC)nc4C)ccn3)cc2)c1
- % of control ([15]; at 1 µM): 95%
- % of control ([15]; at 5 µM): 67%
- % of control ([16]; at 1 µM): 94%
- % of control ([16]; at 5 µM): 85%
- % of control ([17]; at 1 µM): 68%
- % of control ([17]; at 5 µM): 75%
- % of control ([18]; at 1 µM): 107%
- % of control ([18]; at 5 µM): 98%
- % of control ([19]; at 1 µM): 98%
- % of control ([19]; at 5 µM): 101%
- % of control ([20]; at 1 µM): 103%
- % of control ([20]; at 5 µM): 80%
- % of control ([21]; at 1 µM): 91%
- % of control ([21]; at 5 µM): 66%
- % of control ([22]; at 1 µM): 96%
- % of control ([22]; at 5 µM): 77%
- % of control ([23]; at 1 µM): 87%
- % of control ([23]; at 5 µM): 55%
- % of control ([24]; at 1 µM): 102%
- % of control ([24]; at 5 µM): 94%

Source: ChEMBL document CHEMBL5465560, “Selectivity Literature for EUbOPEN Chemogenomic Library” (2024)
